Laboratory results published in patent US7618816B2, “Metal-binding therapeutic peptides” (Ontherix, Inc., priority 2005, dated 2009).
Where no end group is shown, it is not given here.

Columns and labels:
Experiment in all cases: Uptake of SA-HRP::MBD peptide complexes
[1] = tested on: 435; format: cell-based
Method: (§1) HEK293 kidney cell line and 54 tumor cell lines obtained from the National Cancer Institute and passaged in RPMI1640 cell culture medium supplemented with 10% fetal bovine serum and 10 uM FeCl2. Uptake of streptavidin-horseradish peroxidase (SA-HRP) conjugate and of various SA-HRP::MBD peptide complexes was determined as described (Singh et al. J Biol Chem. 279 (1):477-87 [2004]) using biotinylated MBD9 ([…]) (SEQ ID NO: 10) and MBD21 ([…]) (SEQ ID NO: 4) peptides and SA-HRP. Nuclear and cytoplasmic localization of these proteins was also determined in each case. […] In order to establish the underlying molecular mechanism for this variability, we cross-linked MBD21 peptide to the following cell surface markers at 4 degrees Celsius as previously described (Singh et al. J Biol Chem. 279 (1):477-87 [2004]): transferrin receptor 1, caveolin 1, PCNA, integrins alpha v, 2, 5 and 6, integrins beta 1, 3 and 5. […] Based on the strength of these correlations, it was possible to derive crude predictive formulae for MBD-mediated uptake based on the rate of cross-linking to surface markers. Such predictive formulas could form the basis for a diagnostic procedure to select appropriate targets for MBD-based therapies.

[2] = tested on: CCRF-SB; format: cell-based
Method: as §1

[3] = tested on: COLON 26; format: cell-based
Method: as §1

[4] = tested on: HEK 293; format: cell-based
Method: as §1

[5] = tested on: K562; format: cell-based
Method: as §1

[6] = tested on: PAN 02; format: cell-based
Method: as §1

[7] = tested on: SR; format: cell-based
Method: as §1

[8] = tested on: 231; format: cell-based, human
Method: as §1

[9] = tested on: A2780; format: cell-based, human
Method: as §1

[10] = tested on: A704; format: cell-based, human
Method: as §1

[11] = tested on: ACHN; format: cell-based, human
Method: as §1

[12] = tested on: CAKI-1; format: cell-based, human
Method: as §1

[13] = tested on: CCRF-CEM; format: cell-based, human
Method: as §1

[14] = tested on: CHA-59; format: cell-based, human
Method: as §1

[15] = tested on: DU-145; format: cell-based, human
Method: as §1

[16] = tested on: HCT-15; format: cell-based, human
Method: as §1

[17] = tested on: HOP 18; format: cell-based, human
Method: as §1

[18] = tested on: HOP 62; format: cell-based, human
Method: as §1

[19] = tested on: HOP 92; format: cell-based, human
Method: as §1

[20] = tested on: HS-578T; format: cell-based, human
Method: as §1

[21] = tested on: HT-29; format: cell-based, human
Method: as §1

[22] = tested on: KM12; format: cell-based, human
Method: as §1

[23] = tested on: LOVO; format: cell-based, human
Method: as §1

[24] = tested on: MOLT4; format: cell-based, human
Method: as §1

[25] = tested on: NCI-H460; format: cell-based, human
Method: as §1

[26] = tested on: NCI-H522; format: cell-based, human
Method: as §1

[27] = tested on: OVCAR-4; format: cell-based, human
Method: as §1

[28] = tested on: OVCAR-8; format: cell-based, human
Method: as §1

[29] = tested on: PC-3; format: cell-based, human
Method: as §1

[30] = tested on: SHP-77; format: cell-based, human
Method: as §1

[31] = tested on: SN12C; format: cell-based, human
Method: as §1

[32] = tested on: TK-10; format: cell-based, human
Method: as §1

[33] = tested on: WIDR; format: cell-based, human
Method: as §1

KKGFYKKKQCRPSKGRKRGFCWAVDKYG (cysteine pairing not given here; also: biotinylated (position not given here), complexed with SA-HRP) [MBD21]
SA-HRP uptake, Cyt. ([1]; 435, cytoplasmic): 6.1 ng | SA-HRP uptake, Nuc. ([1]; 435, nuclear): 1.3 ng | SA-HRP uptake, Cyt. ([2]; cytoplasmic): 1.7 ng | SA-HRP uptake, Nuc. ([2]; nuclear): 0.1 ng | SA-HRP uptake, Cyt. ([3]; COLON 26, cytoplasmic): 8.9 ng | SA-HRP uptake, Nuc. ([3]; COLON 26, nuclear): 2.2 ng | SA-HRP uptake, Cyt. ([4]; HEK 293, cytoplasmic): 13.6 ng | SA-HRP uptake, Nuc. ([4]; HEK 293, nuclear): 4.5 ng | SA-HRP uptake, Cyt. ([5]; K562, cytoplasmic): 2.8 ng | SA-HRP uptake, Nuc. ([5]; K562, nuclear): 1.1 ng | SA-HRP uptake, Cyt. ([6]; PAN 02, cytoplasmic): 9.3 ng | SA-HRP uptake, Nuc. ([6]; PAN 02, nuclear): 2.2 ng | SA-HRP uptake, Cyt. ([7]; cytoplasmic): 20.9 ng | SA-HRP uptake, Nuc. ([7]; nuclear): 0.0 ng | SA-HRP uptake, Cyt. ([8]; 231, cytoplasmic): 3.4 ng | SA-HRP uptake, Nuc. ([8]; 231, nuclear): 1.1 ng | SA-HRP uptake, Cyt. ([9]; A2780, cytoplasmic): 7.5 ng | SA-HRP uptake, Nuc. ([9]; A2780, nuclear): 1.0 ng | SA-HRP uptake, Cyt. ([10]; A704, cytoplasmic): 4.5 ng | SA-HRP uptake, Nuc. ([10]; A704, nuclear): 1.2 ng | SA-HRP uptake, Cyt. ([11]; cytoplasmic): 8.0 ng | SA-HRP uptake, Nuc. ([11]; nuclear): 3.1 ng | SA-HRP uptake, Cyt. ([12]; CAKI-1, cytoplasmic): 2.8 ng | SA-HRP uptake, Nuc. ([12]; CAKI-1, nuclear): 1.0 ng | SA-HRP uptake, Cyt. ([13]; cytoplasmic): 41.3 ng | SA-HRP uptake, Nuc. ([13]; nuclear): 2.0 ng | SA-HRP uptake, Cyt. ([14]; CHA-59, cytoplasmic): 8.2 ng | SA-HRP uptake, Nuc. ([14]; CHA-59, nuclear): 2.1 ng | SA-HRP uptake, Cyt. ([15]; DU-145, cytoplasmic): 25.7 ng | SA-HRP uptake, Nuc. ([15]; DU-145, nuclear): 3.3 ng | SA-HRP uptake, Cyt. ([16]; HCT-15, cytoplasmic): 2.7 ng | SA-HRP uptake, Nuc. ([16]; HCT-15, nuclear): 0.7 ng | SA-HRP uptake, Cyt. ([17]; HOP 18, cytoplasmic): 10.3 ng | SA-HRP uptake, Nuc. ([17]; HOP 18, nuclear): 3.1 ng | SA-HRP uptake, Cyt. ([18]; HOP 62, cytoplasmic): 4.1 ng | SA-HRP uptake, Nuc. ([18]; HOP 62, nuclear): 0.2 ng | SA-HRP uptake, Cyt. ([19]; HOP 92, cytoplasmic): 1.5 ng | SA-HRP uptake, Nuc. ([19]; HOP 92, nuclear): 1.6 ng | SA-HRP uptake, Cyt. ([20]; cytoplasmic): 2.8 ng | SA-HRP uptake, Nuc. ([20]; nuclear): 2.3 ng | SA-HRP uptake, Cyt. ([21]; HT-29, cytoplasmic): 3.5 ng | SA-HRP uptake, Nuc. ([21]; HT-29, nuclear): 9.5 ng | SA-HRP uptake, Cyt. ([22]; KM12, cytoplasmic): 2.1 ng | SA-HRP uptake, Nuc. ([22]; KM12, nuclear): 0.7 ng | SA-HRP uptake, Cyt. ([23]; cytoplasmic): 8.7 ng | SA-HRP uptake, Nuc. ([23]; nuclear): 3.8 ng | SA-HRP uptake, Cyt. ([24]; MOLT4, cytoplasmic): 7.3 ng | SA-HRP uptake, Nuc. ([24]; MOLT4, nuclear): 0.0 ng | SA-HRP uptake, Cyt. ([25]; NCI-H460, cytoplasmic): 11.6 ng | SA-HRP uptake, Nuc. ([25]; NCI-H460, nuclear): 5.8 ng | SA-HRP uptake, Cyt. ([26]; NCI-H522, cytoplasmic): 5.1 ng | SA-HRP uptake, Nuc. ([26]; NCI-H522, nuclear): 1.7 ng | SA-HRP uptake, Cyt. ([27]; OVCAR-4, cytoplasmic): 6.1 ng | SA-HRP uptake, Nuc. ([27]; OVCAR-4, nuclear): 1.3 ng | SA-HRP uptake, Cyt. ([28]; OVCAR-8, cytoplasmic): 6.1 ng | SA-HRP uptake, Nuc. ([28]; OVCAR-8, nuclear): 13.1 ng | SA-HRP uptake, Cyt. ([29]; PC-3, cytoplasmic): 44.2 ng | SA-HRP uptake, Nuc. ([29]; PC-3, nuclear): 13.2 ng | SA-HRP uptake, Cyt. ([30]; SHP-77, cytoplasmic): 6.6 ng | SA-HRP uptake, Nuc. ([30]; SHP-77, nuclear): 2.7 ng | SA-HRP uptake, Cyt. ([31]; cytoplasmic): 6.7 ng | SA-HRP uptake, Nuc. ([31]; nuclear): 6.4 ng | SA-HRP uptake, Cyt. ([32]; TK-10, cytoplasmic): 5.0 ng | SA-HRP uptake, Nuc. ([32]; TK-10, nuclear): 2.2 ng | SA-HRP uptake, Cyt. ([33]; cytoplasmic): 2.8 ng | SA-HRP uptake, Nuc. ([33]; nuclear): 1.0 ng
